# From PMC7063354, “Novel dipeptidyl peptidase‐IV and angiotensin‐I‐converting enzyme inhibitory peptides released from quinoa protein by in silico proteolysis” (Food Science & Nutrition, 2020)
# Peptide text beside a SMILES is read from it.
# Molecular target: T1, DPP-IV (Homo sapiens, UniProt P27487)
# T1 construct: purchased Abnova KA1311
# Experiment: DPP-IV inhibition assay (DPP-IV inhibitor screening assay kit, Gly-Pro-Aminomethylcoumarin substrate)
# Format: biochemical
# Conditions: chemically synthesized peptides; mean ± SD of three replicates
# Protocol: The DPP‐IV inhibition assay was determined using DPP‐IV inhibitor screening assay kit (KA1311, Abnova). Briefly, peptide samples (10 μl), dispersed in assay buffer (20 mM Tris‐HCl containing 100 mM NaCl and 1 mM EDTA, pH 8.0) at various concentrations, were mixed with assay buffer and DPP‐IV in a 96‐well plate. Then, substrate solution (Gly‐Pro‐Aminomethylcoumarin) was added to initiate the reactions. The mixture was incubated at 37°C for 30 min, and the fluorescence was measured using a plate reader (Synergy MX, Bio Tek) at an excitation wavelength of 350 nm and an emission wavelength of 450 nm. The concentration of the DPP‐IV inhibitor required to inhibit 50% of DPP‐IV activity under the above assay conditions was defined as the IC50, which was the mean value from three independent replicate assays.
# T1 sequence (P27487 whole entry): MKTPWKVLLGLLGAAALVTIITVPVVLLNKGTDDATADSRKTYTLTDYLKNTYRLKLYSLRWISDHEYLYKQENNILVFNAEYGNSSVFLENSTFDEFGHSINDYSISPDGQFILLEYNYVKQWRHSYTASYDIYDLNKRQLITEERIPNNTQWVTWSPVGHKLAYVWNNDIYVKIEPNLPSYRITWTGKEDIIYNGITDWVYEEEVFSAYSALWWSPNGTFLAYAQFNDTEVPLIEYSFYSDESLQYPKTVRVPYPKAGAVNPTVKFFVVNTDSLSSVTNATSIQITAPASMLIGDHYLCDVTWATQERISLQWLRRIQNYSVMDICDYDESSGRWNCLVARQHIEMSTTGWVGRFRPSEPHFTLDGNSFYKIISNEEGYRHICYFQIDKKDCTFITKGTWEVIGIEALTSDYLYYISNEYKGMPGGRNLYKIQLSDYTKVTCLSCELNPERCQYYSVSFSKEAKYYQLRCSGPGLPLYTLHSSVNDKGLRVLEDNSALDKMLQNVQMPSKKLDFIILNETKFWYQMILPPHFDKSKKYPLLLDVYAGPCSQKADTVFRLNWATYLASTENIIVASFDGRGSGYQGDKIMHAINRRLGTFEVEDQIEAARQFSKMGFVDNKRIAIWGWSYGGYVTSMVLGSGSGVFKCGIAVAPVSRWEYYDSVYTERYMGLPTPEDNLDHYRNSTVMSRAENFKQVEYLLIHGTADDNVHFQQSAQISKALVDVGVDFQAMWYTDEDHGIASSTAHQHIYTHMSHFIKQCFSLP
row,Molecule,IC50
1,CSCC[C@H](N)C(=O)N[C@@H](C)C(=O)N[C@@H](Cc1ccccc1)C(=O)O [MAF] (H-Met-Ala-Phe-OH),338 µM
2,CSCC[C@H](N)C(=O)N[C@@H](CS)C(=O)NCC(=O)O [MCG] (H-Met-Cys-Gly-OH),149 µM

# Results, then the molecule that gave them:
row,IC50,Molecule
1,34.3 µM,N[C@@H](Cc1cnc[nH]1)C(=O)N1CCC[C@H]1C(=O)N[C@@H](Cc1ccccc1)C(=O)O [HPF] (H-His-Pro-Phe-OH)
2,127 µM,CSCC[C@H](NC(=O)[C@@H](N)CC(N)=O)C(=O)N[C@@H](Cc1ccccc1)C(=O)O [NMF] (H-Asn-Met-Phe-OH)

# Molecular target: T2, ACE (Homo sapiens, UniProt P12821)
# T2 construct: purchased ACE kit‐WST
# T2 sequence (P12821 30-1306, species assumed): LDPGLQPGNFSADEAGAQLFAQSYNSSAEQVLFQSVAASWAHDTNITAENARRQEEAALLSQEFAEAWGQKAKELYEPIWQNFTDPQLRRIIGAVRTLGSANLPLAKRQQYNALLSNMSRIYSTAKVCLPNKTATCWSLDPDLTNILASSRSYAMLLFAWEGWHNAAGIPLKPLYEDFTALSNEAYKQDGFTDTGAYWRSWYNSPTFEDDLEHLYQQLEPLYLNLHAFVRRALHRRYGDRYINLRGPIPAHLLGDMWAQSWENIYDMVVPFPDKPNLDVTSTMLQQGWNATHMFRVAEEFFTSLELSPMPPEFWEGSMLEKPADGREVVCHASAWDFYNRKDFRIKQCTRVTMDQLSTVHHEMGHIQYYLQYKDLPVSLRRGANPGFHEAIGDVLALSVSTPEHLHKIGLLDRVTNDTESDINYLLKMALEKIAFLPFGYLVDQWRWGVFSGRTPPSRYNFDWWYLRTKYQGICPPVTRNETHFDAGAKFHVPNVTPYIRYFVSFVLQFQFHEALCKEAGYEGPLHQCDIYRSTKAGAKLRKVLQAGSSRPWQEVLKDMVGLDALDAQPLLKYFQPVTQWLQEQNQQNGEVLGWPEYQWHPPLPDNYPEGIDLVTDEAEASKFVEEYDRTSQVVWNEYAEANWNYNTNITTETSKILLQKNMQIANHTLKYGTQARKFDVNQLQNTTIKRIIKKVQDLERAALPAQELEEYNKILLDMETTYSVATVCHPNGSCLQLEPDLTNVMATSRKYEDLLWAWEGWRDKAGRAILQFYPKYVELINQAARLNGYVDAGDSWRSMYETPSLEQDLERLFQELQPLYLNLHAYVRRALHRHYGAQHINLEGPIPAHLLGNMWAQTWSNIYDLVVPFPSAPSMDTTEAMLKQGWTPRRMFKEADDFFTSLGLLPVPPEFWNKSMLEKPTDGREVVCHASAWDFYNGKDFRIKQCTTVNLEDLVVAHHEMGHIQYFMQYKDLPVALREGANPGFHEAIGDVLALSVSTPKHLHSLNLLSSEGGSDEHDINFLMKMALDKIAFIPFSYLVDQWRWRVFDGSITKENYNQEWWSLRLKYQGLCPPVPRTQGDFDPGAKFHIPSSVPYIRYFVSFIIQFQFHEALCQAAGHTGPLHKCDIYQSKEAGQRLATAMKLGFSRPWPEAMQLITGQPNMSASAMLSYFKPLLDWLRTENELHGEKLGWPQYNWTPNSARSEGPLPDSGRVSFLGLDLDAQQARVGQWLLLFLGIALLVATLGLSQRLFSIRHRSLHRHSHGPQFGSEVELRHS
# Experiment: ACE inhibition assay (ACE kit-WST)
# Format: biochemical
# Conditions: chemically synthesized peptides; mean ± SD of three replicates
# Protocol: The ACE inhibition assay was carried out with the ACE inhibitory assay kit (ACE kit‐WST). Absorbance at 450 nm was measured using a plate reader (SpectraMax plus, Molecular devices), and the IC50 value reported for each sample was the mean value from three independent replicate assays.
row,Molecule,IC50
1,CSCC[C@H](N)C(=O)N[C@@H](C)C(=O)N[C@@H](Cc1ccccc1)C(=O)O [MAF] (H-Met-Ala-Phe-OH),152 µM
2,CSCC[C@H](N)C(=O)N[C@@H](CS)C(=O)NCC(=O)O [MCG] (H-Met-Cys-Gly-OH),20.9 µM

# Second part, the molecule after the results:
row,IC50,Molecule
1,100 µM,N[C@@H](Cc1cnc[nH]1)C(=O)N1CCC[C@H]1C(=O)N[C@@H](Cc1ccccc1)C(=O)O [HPF] (H-His-Pro-Phe-OH)
2,152 µM,CSCC[C@H](NC(=O)[C@@H](N)CC(N)=O)C(=O)N[C@@H](Cc1ccccc1)C(=O)O [NMF] (H-Asn-Met-Phe-OH)

# Molecular target: T1, DPP-IV
# Experiment: not given
# Parameters: method as in Vilcacundo et al., 2017
# Conditions: peptide released from quinoa protein by pepsin-pancreatin digestion; ref Vilcacundo et al., 2017; read-out: IC50 DPP-IV inhibitory activity; cited from earlier work
row,Molecule,IC50
1,IQAEGGLT,268 µM
